The supplement of paper PMC10307832

What was measured:
Experiment in all cases: relative viability (nuclei count vs DMSO), 5 days (fraction); higher = more cells survive
NCI-H2342 = system: NCI-H2342
Summary of the method: (§1)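 Relative viability is defined as nuclei in treated wells over nuclei in vehicle wells. Duplicate plates were run and medians reported. Lung cancer cell lines in 1536-well plates were dosed by pin tool one day after seeding, with one drug or with a fixed anchor-drug dose plus five library-drug doses (not always all listed) in √10 steps, and nuclei were counted after 5 days.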

NCI-H1793 = system: NCI-H1793
Summary of the method: as §1

EMC-BAC-2 = system: EMC-BAC-2
Summary of the method: as §1

NCI-H2228 = system: NCI-H2228
Summary of the method: as §1

EKVX = system: EKVX
Summary of the method: as §1

H3255 = system: H3255
Summary of the method: as §1

LXF-289 = system: LXF-289
Summary of the method: as §1

NCI-H2347 = system: NCI-H2347
Summary of the method: as §1

NCI-H1755 = system: NCI-H1755
Summary of the method: as §1

NCI-H1395 = system: NCI-H1395
Summary of the method: as §1

NCI-H2085 = system: NCI-H2085
Summary of the method: as §1

LK-2 = system: LK-2
Summary of the method: as §1

NCI-H1437 = system: NCI-H1437
Summary of the method: as §1

LC-2-ad = system: LC-2-ad
Summary of the method: as §1

NCI-H1944 = system: NCI-H1944
Summary of the method: as §1

NCI-H522 = system: NCI-H522
Summary of the method: as §1

CAL-12T = system: CAL-12T
Summary of the method: as §1

NCI-H2087 = system: NCI-H2087
Summary of the method: as §1

NCI-H1915 = system: NCI-H1915
Summary of the method: as §1

SK-LU-1 = system: SK-LU-1
Summary of the method: as §1

PC-3 [JPC-3] = system: PC-3 [JPC-3]
Summary of the method: as §1

SK-MES-1 = system: SK-MES-1
Summary of the method: as §1

NCI-H1651 = system: NCI-H1651
Summary of the method: as §1

COR-L 105 = system: COR-L 105
Summary of the method: as §1

NCI-H661 = system: NCI-H661
Summary of the method: as §1

With `CCCCCCCCCCCC1=C(O)C(=O)C=C(O)C1=O` [Embelin] + CC(=O)Nc1cccc(-n2c(=O)n(C3CC3)c(=O)c3c(Nc4ccc(I)cc4F)n(C)c(=O)c(C)c32)c1 [Trametinib] (partner 0.02 µM) the relative viability (NCI-H2342; first compound 0.08 µM) was 0.95, the relative viability (NCI-H2342; first compound 0.8 µM) was 0.806 and the relative viability (NCI-H2342; first compound 2.53 µM) was 0.866. For the same compound, the relative viability (NCI-H2342; first compound 8 µM) was 0.757, the relative viability (NCI-H1793; first compound 0.08 µM) was 0.398 and the relative viability (NCI-H1793; first compound 0.8 µM) was 0.446. For the same compound, the relative viability (NCI-H1793; first compound 2.53 µM) was 0.511, the relative viability (NCI-H1793; first compound 8 µM) was 0.419 and the relative viability (EMC-BAC-2; first compound 0.08 µM) was 0.845. For the same compound, the relative viability (EMC-BAC-2; first compound 0.8 µM) was 1.08, the relative viability (EMC-BAC-2; first compound 2.53 µM) was 0.883 and the relative viability (EMC-BAC-2; first compound 8 µM) was 0.913. For the same compound, the relative viability (NCI-H2228; first compound 0.08 µM) was 0.491, the relative viability (NCI-H2228; first compound 0.8 µM) was 0.523 and the relative viability (NCI-H2228; first compound 2.53 µM) was 0.609. It also gave a relative viability (NCI-H2228; first compound 8 µM) of 0.455, a relative viability (EKVX; first compound 0.08 µM) of 0.328 and a relative viability (EKVX; first compound 0.8 µM) of 0.472. The relative viability (EKVX; first compound 2.53 µM) was 0.275, the relative viability (EKVX; first compound 8 µM) was 0.429 and the relative viability (H3255; first compound 0.08 µM) was 0.601. The relative viability (H3255; first compound 0.8 µM) was 0.764, the relative viability (H3255; first compound 2.53 µM) was 0.717 and the relative viability (H3255; first compound 8 µM) was 0.647. It also gave a relative viability (LXF-289; first compound 0.08 µM) of 0.715, a relative viability (LXF-289; first compound 0.8 µM) of 0.737 and a relative viability (LXF-289; first compound 2.53 µM) of 0.722. It also gave a relative viability (LXF-289; first compound 8 µM) of 0.676, a relative viability (NCI-H2347; first compound 0.08 µM) of 0.307 and a relative viability (NCI-H2347; first compound 0.8 µM) of 0.272. The relative viability (NCI-H2347; first compound 2.53 µM) was 0.255, the relative viability (NCI-H2347; first compound 8 µM) was 0.316 and the relative viability (NCI-H1755; first compound 0.08 µM) was 0.816. For the same compound, the relative viability (NCI-H1755; first compound 0.8 µM) was 0.75, the relative viability (NCI-H1755; first compound 2.53 µM) was 0.841 and the relative viability (NCI-H1755; first compound 8 µM) was 0.723. The relative viability (NCI-H1395; first compound 0.08 µM) was 0.996, the relative viability (NCI-H1395; first compound 0.8 µM) was 1.14 and the relative viability (NCI-H1395; first compound 2.53 µM) was 1.14. The relative viability (NCI-H1395; first compound 8 µM) was 1.14, the relative viability (NCI-H2085; first compound 0.08 µM) was 0.663 and the relative viability (NCI-H2085; first compound 0.8 µM) was 0.579. The relative viability (NCI-H2085; first compound 2.53 µM) was 0.532, the relative viability (NCI-H2085; first compound 8 µM) was 0.448 and the relative viability (LK-2; first compound 0.08 µM) was 0.793. For the same compound, the relative viability (LK-2; first compound 0.8 µM) was 1.02, the relative viability (LK-2; first compound 2.53 µM) was 0.945 and the relative viability (LK-2; first compound 8 µM) was 0.954. It also gave a relative viability (NCI-H1437; first compound 0.08 µM) of 0.531, a relative viability (NCI-H1437; first compound 0.8 µM) of 0.607 and a relative viability (NCI-H1437; first compound 2.53 µM) of 0.648. For the same compound, the relative viability (NCI-H1437; first compound 8 µM) was 0.505, the relative viability (LC-2-ad; first compound 0.08 µM) was 0.891 and the relative viability (LC-2-ad; first compound 0.8 µM) was 0.98. For the same compound, the relative viability (LC-2-ad; first compound 2.53 µM) was 0.966, the relative viability (LC-2-ad; first compound 8 µM) was 1.02 and the relative viability (NCI-H1944; first compound 0.08 µM) was 0.404. For the same compound, the relative viability (NCI-H1944; first compound 0.8 µM) was 0.436, the relative viability (NCI-H1944; first compound 2.53 µM) was 0.446 and the relative viability (NCI-H1944; first compound 8 µM) was 0.428. It also gave a relative viability (NCI-H522; first compound 0.08 µM) of 0.637, a relative viability (NCI-H522; first compound 0.8 µM) of 0.817 and a relative viability (NCI-H522; first compound 2.53 µM) of 0.719. It also gave a relative viability (NCI-H522; first compound 8 µM) of 0.765, a relative viability (CAL-12T; first compound 0.08 µM) of 0.376 and a relative viability (CAL-12T; first compound 0.8 µM) of 0.386. For the same compound, the relative viability (CAL-12T; first compound 2.53 µM) was 0.283, the relative viability (CAL-12T; first compound 8 µM) was 0.295 and the relative viability (NCI-H2087; first compound 0.08 µM) was 0.147. For the same compound, the relative viability (NCI-H2087; first compound 0.8 µM) was 0.225, the relative viability (NCI-H2087; first compound 2.53 µM) was 0.233 and the relative viability (NCI-H2087; first compound 8 µM) was 0.182. It also gave a relative viability (NCI-H1915; first compound 0.08 µM) of 0.319, a relative viability (NCI-H1915; first compound 0.8 µM) of 0.33 and a relative viability (NCI-H1915; first compound 2.53 µM) of 0.263. The relative viability (NCI-H1915; first compound 8 µM) was 0.295, the relative viability (SK-LU-1; first compound 0.08 µM) was 0.505 and the relative viability (SK-LU-1; first compound 0.8 µM) was 0.542. The relative viability (SK-LU-1; first compound 2.53 µM) was 0.691, the relative viability (SK-LU-1; first compound 8 µM) was 0.39 and the relative viability (PC-3 [JPC-3]; first compound 0.08 µM) was 0.684. It also gave a relative viability (PC-3 [JPC-3]; first compound 0.8 µM) of 0.75, a relative viability (PC-3 [JPC-3]; first compound 2.53 µM) of 0.788 and a relative viability (PC-3 [JPC-3]; first compound 8 µM) of 0.614. The relative viability (SK-MES-1; first compound 0.08 µM) was 0.599, the relative viability (SK-MES-1; first compound 0.8 µM) was 0.588 and the relative viability (SK-MES-1; first compound 2.53 µM) was 0.591. The relative viability (SK-MES-1; first compound 8 µM) was 0.518, the relative viability (NCI-H1651; first compound 0.08 µM) was 0.845 and the relative viability (NCI-H1651; first compound 0.8 µM) was 0.905. The relative viability (NCI-H1651; first compound 2.53 µM) was 0.824, the relative viability (NCI-H1651; first compound 8 µM) was 0.83 and the relative viability (COR-L 105; first compound 0.08 µM) was 0.462. It also gave a relative viability (COR-L 105; first compound 0.8 µM) of 0.458, a relative viability (COR-L 105; first compound 2.53 µM) of 0.464 and a relative viability (COR-L 105; first compound 8 µM) of 0.445. For the same compound, the relative viability (NCI-H661; first compound 0.08 µM) was 0.604, the relative viability (NCI-H661; first compound 0.8 µM) was 0.729 and the relative viability (NCI-H661; first compound 2.53 µM) was 0.657. For the same compound, the relative viability (NCI-H661; first compound 8 µM) was 0.521.
